Values quoted from earlier work in PMC10458307, “New Scaffolds of Proteasome Inhibitors: Boosting Anticancer Potential by Exploiting the Synergy of In Silico and In Vitro Methodologies” (Pharmaceuticals, 2023).
pIC50: −log10 of the molar value. Peptide text beside a SMILES is read from it. * marks the point of attachment. Cbz = O=C(OCc1ccccc1)*

System: proteasome T-L activity
Parameters: method as in PMID 16286248
Conditions: literature value; cited from earlier work
In the case of `C[C@@]12OC(=O)[C@]1([C@@H](O)[C@@H]1C=CCCC1)NC(=O)[C@@H]2CCCl` [Marizomib, marizomib], the pIC50 is given as 7.55.

System: proteasome CT-L active site
Conditions: literature values of known proteasome inhibitors; reference per compound; cited from earlier work
For `CC(C)C[C@@H](C=O)NC(=O)[C@H](CC(C)C)NC(=O)[C@H](CC(C)C)NC(=O)OCc1ccccc1` [MG-132] (Cbz-Leu-Leu-Leu-aldehyde), the IC50 is listed as 40 nM.
In the case of `O=c1c(O)c(-c2ccc(O)cc2)oc2cc(O)cc(O)c12` [Kaempferol], the IC50 is listed as 10500 nM.
In the case of `CC[C@H](C)[C@H](NC(=O)[C@H]([C@@H](C)CC)N(C)C(C)=O)C(=O)N[C@H](C(=O)N[C@@H](CC(C)C)C(=O)[C@@]1(C)CO1)[C@@H](C)O` [Epoxomicin], the IC50 is given as 47 nM.
In the case of `O=c1cc(-c2ccc(O)cc2)oc2cc(O)cc(O)c12` [Apigenin], the IC50 is listed as 1800 nM.
For `O=c1c(O)c(-c2ccc(O)c(O)c2)oc2cc(O)cc(O)c12` [Quercetin], the IC50 is given as 3500 nM.
In the case of `Oc1cc(O)c2cc(O)c(-c3cc(O)c(O)c(O)c3)[o+]c2c1` [Delphinidin], the IC50 is listed as 32400 nM.
For `COc1cc(-c2[o+]c3cc(O)cc(O)c3cc2O)cc(OC)c1O` [Malvidin], the IC50 is listed as 32000 nM.
For `Oc1cc(O)c2cc(O)c(-c3ccc(O)c(O)c3)[o+]c2c1` [Cyanidin], the IC50 is given as 18400 nM.
In the case of `C/C=C\NC(=O)[C@H]1NC(=O)[C@H](CC(N)=O)NC(=O)[C@@H](NC(=O)C(=O)[C@@H](C)CC)Cc2ccc(O)c(c2)-c2cccc3c2NC(=O)[C@@]3(O)[C@@H]1O` [TMC-95A], the IC50 is listed as 5.4 nM.
For `CCCCCCCCC[C@@H](O)CC(=O)N[C@@H](CC(N)=O)C(=O)N[C@@H](CCC(N)=O)C(=O)N[C@H](C=O)CC(C)C` [Fellutamide B], the IC50 is given as 9.4 nM.

System: proteasome C-L active site
Conditions: literature values; ref 34 (bortezomib), 35 (ixazomib); cited from earlier work
For `CC(C)C[C@H](NC(=O)CNC(=O)c1cc(Cl)ccc1Cl)B(O)O` [Ixazomib, ixazomib], the pIC50 is given as 7.51.
